Values joined by “and” are separate entries in the source; they are usually repeats but may differ in a detail not shown here. Identical values can stand only once. Inconclusive results and toxic doses are left out. Cut-off read from the data, not from the text of the source: active = T/C of 150% or more; inactive = T/C below 125%.
System: L1210 leukemia ip in BDF1 mice, survival T/C
Assay: NCI In Vivo Anticancer Drug Screen. Data for tumor model L1210 Leukemia (intraperitoneal) in B6D2F1 (BDF1) mice
Conditions: endpoint: mean survival time, higher = longer survival
In short: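 Each compound was tested against a transplantable tumor grown in mice. The endpoint was survival, with treated animals benchmarked against vehicle controls as a simple ratio.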

[1] = dose: 100.0 mg/kg/injection, schedule: Q01DX001 (ip), vehicle: Klucel (hydroxypropylcellulose) (HPC)
[2] = dose: 200.0 mg/kg/injection, schedule: Q01DX001 (ip), vehicle: Klucel (hydroxypropylcellulose) (HPC)
[3] = dose: 400.0 mg/kg/injection, schedule: Q01DX001 (ip), vehicle: Klucel (hydroxypropylcellulose) (HPC)
[4] = dose: 100.0 mg/kg/injection, schedule: Q01DX001 (ip), vehicle: saline
[5] = dose: 200.0 mg/kg/injection, schedule: Q01DX001 (ip), vehicle: saline
[6] = dose: 400.0 mg/kg/injection, schedule: Q01DX001 (ip), vehicle: saline
[7] = dose: 100.0 mg/kg/injection, schedule: Q04DX003 (ip), vehicle: Klucel (hydroxypropylcellulose) (HPC)
[8] = dose: 200.0 mg/kg/injection, schedule: Q04DX003 (ip), vehicle: Klucel (hydroxypropylcellulose) (HPC)
[9] = dose: 400.0 mg/kg/injection, schedule: Q04DX003 (ip), vehicle: Klucel (hydroxypropylcellulose) (HPC)
[10] = dose: 100.0 mg/kg/injection, schedule: Q04DX003 (ip), vehicle: saline with Tween-80
[11] = dose: 100.0 mg/kg/injection, schedule: Q01DX009 (ip), vehicle: Klucel (hydroxypropylcellulose) (HPC)
[12] = dose: 200.0 mg/kg/injection, schedule: Q01DX009 (ip), vehicle: Klucel (hydroxypropylcellulose) (HPC)
[13] = dose: 400.0 mg/kg/injection, schedule: Q01DX009 (ip), vehicle: Klucel (hydroxypropylcellulose) (HPC)
[14] = dose: 100.0 mg/kg/injection, schedule: Q04DX003 (ip), vehicle: saline

Measured: T/C

N#CCNC(=O)c1ccc(I)cc1
inactive: [1] 111 % of control | [2] 95 % of control | [3] 106 % of control

COc1cc(C2=C3C(=O)OCC3Cc3ccccc32)ccc1OCc1ccccc1 (centres undefined)
inactive: [4] 97 % of control | [5] 95 % of control | [6] 98 % of control

CSc1cc(N)nc2nc[nH]c12
inactive: [4] 105 % of control | [5] 98 % of control | [6] 98 % of control

CC(=O)Oc1ccc(/C=C(\NC(=O)c2ccccc2)C(=O)O)cc1
inactive: [7] 95 % of control | [8] 91 % of control | [9] 91 % of control

CN(C)c1ccc(C(=O)O)cc1
inactive: dose: 100.0 mg/kg/injection, schedule: Q01DX009 (ip), vehicle: other 93 % of control | dose: 100.0 mg/kg/injection, schedule: Q04DX003 (ip), vehicle: other 104 % of control | dose: 200.0 mg/kg/injection, schedule: Q01DX009 (ip), vehicle: other 87 % of control | dose: 200.0 mg/kg/injection, schedule: Q04DX003 (ip), vehicle: other 107 % of control | dose: 400.0 mg/kg/injection, schedule: Q01DX009 (ip), vehicle: other 96 % of control | dose: 400.0 mg/kg/injection, schedule: Q04DX003 (ip), vehicle: other 95 % of control

CCC12CC3(C(=O)OC)OC1C(O)CN1CCc4c(n3c3cc(OC)ccc43)C12 (centres undefined)
inactive: dose: 6.25 mg/kg/injection, schedule: Q04DX002 (ip), vehicle: saline with Tween-80 100 % of control | dose: 12.5 mg/kg/injection, schedule: Q04DX002 (ip), vehicle: saline with Tween-80 107 % of control | dose: 25.0 mg/kg/injection, schedule: Q04DX002 (ip), vehicle: saline with Tween-80 103 % of control | dose: 50.0 mg/kg/injection, schedule: Q04DX002 (ip), vehicle: saline with Tween-80 100 % of control and 86 % of control | dose: 200.0 mg/kg/injection, schedule: Q04DX002 (ip), vehicle: saline with Tween-80 89 % of control | dose: 400.0 mg/kg/injection, schedule: Q04DX002 (ip), vehicle: saline with Tween-80 89 % of control

COc1ccc2c(c1)N(CCCN(C)C)c1ccccc1S2
inactive: dose: 4.68 mg/kg/injection, schedule: Q01DX009 (ip), vehicle: saline 118 % of control | dose: 9.37 mg/kg/injection, schedule: Q01DX009 (ip), vehicle: saline 115 % of control | dose: 18.75 mg/kg/injection, schedule: Q01DX009 (ip), vehicle: saline 115 % of control | dose: 18.75 mg/kg/injection, schedule: Q04DX003 (ip), vehicle: saline 104 % of control | dose: 37.5 mg/kg/injection, schedule: Q01DX009 (ip), vehicle: saline 118 % of control | dose: 37.5 mg/kg/injection, schedule: Q04DX003 (ip), vehicle: saline 114 % of control | dose: 75.0 mg/kg/injection, schedule: Q01DX009 (ip), vehicle: saline 95 % of control | dose: 75.0 mg/kg/injection, schedule: Q04DX003 (ip), vehicle: saline 121 % of control

Cc1nc(N)[nH]c(=O)c1CCCNC(=O)c1ccccc1
inactive: [1] 94 % of control | [2] 91 % of control | [3] 87 % of control

[Br][Sn]([Br])([c]1cccc2ccccc12)[c]1cccc2ccccc12
inactive: dose: 100.0 mg/kg/injection, schedule: Q01DX001 (ip), vehicle: saline with Tween-80 102 % of control | dose: 200.0 mg/kg/injection, schedule: Q01DX001 (ip), vehicle: saline with Tween-80 93 % of control | dose: 400.0 mg/kg/injection, schedule: Q01DX001 (ip), vehicle: saline with Tween-80 93 % of control

C[CH2][Pb]([CH2]C)([CH2]C)[O]C(=O)CBr
inactive: dose: 0.78 mg/kg/injection, schedule: Q01DX009 (ip), vehicle: Klucel (hydroxypropylcellulose) (HPC) 92 % of control | dose: 1.56 mg/kg/injection, schedule: Q01DX009 (ip), vehicle: Klucel (hydroxypropylcellulose) (HPC) 103 % of control | dose: 3.12 mg/kg/injection, schedule: Q01DX009 (ip), vehicle: Klucel (hydroxypropylcellulose) (HPC) 98 % of control and 92 % of control | dose: 3.12 mg/kg/injection, schedule: Q04DX002 (ip), vehicle: Klucel (hydroxypropylcellulose) (HPC) 93 % of control | dose: 6.25 mg/kg/injection, schedule: Q04DX002 (ip), vehicle: Klucel (hydroxypropylcellulose) (HPC) 90 % of control | dose: 12.5 mg/kg/injection, schedule: Q04DX002 (ip), vehicle: Klucel (hydroxypropylcellulose) (HPC) 98 % of control and 106 % of control

CCCCOc1ccc(NC(=O)CCl)cc1
inactive: [10] 89 % of control

O=C(NC1CCCCC1)OC/C=C\c1ccccc1
inactive: [11] 101 % of control | [7] 101 % of control | [12] 98 % of control | [8] 96 % of control | [13] 109 % of control | [9] 102 % of control

COc1ccc(NC(=O)Oc2cccc(OC(=O)c3ccccc3)c2)cc1
inactive: [1] 96 % of control | [11] 104 % of control and 106 % of control | dose: 100.0 mg/kg/injection, schedule: Q04DX002 (ip), vehicle: Klucel (hydroxypropylcellulose) (HPC) 93 % of control and 103 % of control and 106 % of control | [7] 98 % of control | [2] 93 % of control | [12] 100 % of control and 103 % of control | dose: 200.0 mg/kg/injection, schedule: Q04DX002 (ip), vehicle: Klucel (hydroxypropylcellulose) (HPC) 99 % of control and 100 % of control and 103 % of control | [8] 98 % of control | [3] 93 % of control | [13] 97 % of control and 98 % of control | dose: 400.0 mg/kg/injection, schedule: Q04DX002 (ip), vehicle: Klucel (hydroxypropylcellulose) (HPC) 93 % of control and 97 % of control and 99 % of control | [9] 91 % of control

CCOC(=N)CCl
inactive: dose: 50.0 mg/kg/injection, schedule: Q04DX003 (ip), vehicle: saline 101 % of control | [14] 95 % of control

CSCc1cnc(N)nc1-c1ccccc1
inactive: [10] 105 % of control | dose: 200.0 mg/kg/injection, schedule: Q04DX003 (ip), vehicle: saline with Tween-80 97 % of control | dose: 400.0 mg/kg/injection, schedule: Q04DX003 (ip), vehicle: saline with Tween-80 105 % of control

CC(=O)OC(C1C[C@@]2(C)[C@@H](CC[C@@H]3[C@@H]2CC[C@]2(C)[C@@H](OC(C)=O)CC[C@@H]32)CC1=O)C(F)(F)F (some centres undefined)
inactive: dose: 50.0 mg/kg/injection, schedule: Q01DX009 (ip), vehicle: carboxymethylcellulose (CMC) 97 % of control | dose: 100.0 mg/kg/injection, schedule: Q01DX009 (ip), vehicle: carboxymethylcellulose (CMC) 89 % of control | dose: 200.0 mg/kg/injection, schedule: Q01DX009 (ip), vehicle: carboxymethylcellulose (CMC) 95 % of control

NC(=O)N/N=C/C1CCC=CO1 (centres undefined)
inactive: [11] 94 % of control | [12] 102 % of control | [13] 103 % of control

CC12CCC3C(CC=C4CC(SC(=N)N)CCC43C)C1CCC2=O (centres undefined)
inactive: [1] 95 % of control | [7] 97 % of control | [2] 95 % of control | [8] 95 % of control | [3] 101 % of control | [9] 97 % of control

CC(=O)NC(C)Cc1ccc2c(c1)OCO2 (centres undefined)
inactive: [11] 102 % of control | [12] 107 % of control

O=C(O)c1cccc(C(=O)c2ccccc2)c1O
inactive: dose: 100.0 mg/kg/injection, schedule: Q01DX001 (ip), vehicle: carboxymethylcellulose (CMC) 97 % of control | dose: 200.0 mg/kg/injection, schedule: Q01DX001 (ip), vehicle: carboxymethylcellulose (CMC) 100 % of control | dose: 400.0 mg/kg/injection, schedule: Q01DX001 (ip), vehicle: carboxymethylcellulose (CMC) 92 % of control

Clc1cc2n[nH]nc2c(SCc2ccccc2)n1
inactive: dose: 50.0 mg/kg/injection, schedule: Q01DX005 (ip), vehicle: saline with Tween-80 101 % of control | dose: 100.0 mg/kg/injection, schedule: Q01DX005 (ip), vehicle: saline with Tween-80 90 % of control | dose: 200.0 mg/kg/injection, schedule: Q01DX005 (ip), vehicle: saline with Tween-80 97 % of control

O=S(=O)(Cl)CCCBr
inactive: dose: 100.0 mg/kg/injection, schedule: Q01DX009 (ip), vehicle: saline sonified 93 % of control | dose: 200.0 mg/kg/injection, schedule: Q01DX009 (ip), vehicle: saline sonified 86 % of control

OC1C2CCN(CC2)C1CNC12CC3CC(CC(C3)C1)C2 (centres undefined)
inactive: [14] 97 % of control | dose: 200.0 mg/kg/injection, schedule: Q04DX003 (ip), vehicle: saline 96 % of control

C[n+]1ccc(/C=C/c2ccc(O)c3ccccc23)cc1
inactive: dose: 75.0 mg/kg/injection, schedule: Q01DX001 (ip), vehicle: saline 100 % of control | dose: 150.0 mg/kg/injection, schedule: Q01DX001 (ip), vehicle: saline 101 % of control
